Measurements as given in patent US7329666B2, “Derivatives of variolin B” (Pharma Mar, S.A., priority 2000, dated 2008).

Assays:
P-388 = experiment: cytotoxicity against P-388; type: cell-based; conditions: Mus musculus, P388
Protocol: (§1) The cytotoxicity of the compounds of scheme 4 of this invention is illustrated by the following IC50 μM data: […]

HT-29 = experiment: cytotoxicity against HT-29; type: cell-based; conditions: Homo sapiens
Protocol: as §1

A-549 = experiment: cytotoxicity against A-549; type: cell-based; conditions: Homo sapiens, A549
Protocol: as §1

HCT 116 cell line = conditions: cited from earlier work
Sacharomyces cerevisiae = conditions: cited from earlier work
P388 cell line = conditions: Tetrahedron 1994, 50, 3987-3992; cited from earlier work
[1] = cited from earlier work
other microorganisms = conditions: cited from earlier work
Herpes simplex = conditions: cited from earlier work

Row | Compound | IC50 (P-388) [nM] | IC50 (HT-29) [nM] | IC50 (A-549) [nM] | other results
1 | Nc1nccc(-c2c3cccnc3n3c(N)nccc23)n1 [Compound 5, 9-Amino-5-(2-aminopyrimidin-4-yl)pyrido[3′,2′:4,5]pyrrolo[1,2-c]-pyrimidine] | 360 | 40 | 40 | 
2 | CSc1nccc(-c2c3cccnc3n3c(NC(C)=O)nccc23)n1 [Compound 20a, 9-Acetylamino-5-(2-methanesulfanylpyrimidin-4-yl)pyrido[3′,2′:4,5]-pyrrolo-[1,2-c]pyrimidine] | > 3000 | 290 | 290 | 
3 | CSc1nccc(-c2c3cccnc3n3c(N)nccc23)n1 [Compound 21, 9-Amino-5-(2-methanesulfanylpyrimidin-4-yl)pyrido[3′,2′:4,5]pyrrolo[1,2-c]pyrimidine] | > 3000 | 160 | 160 | 
4 | CN1C(N)=NCCC1c1c2c(O)ccnc2n2c(N)nccc12 (stereo not shown) [N(3′)-methyltetrahydrovariolin B, N (3′)-methyl tetrahydrovariolin B] |  |  |  | in vitro activity against the HCT 116 cell line (HCT 116 cell line): in vitro activity; growth of Sacharomyces cerevisiae (Sacharomyces cerevisiae): inhibited the growth
5 | C[n+]1c([O-])cc(-c2c3c(O)ccnc3n3c(N)nccc23)nc1N [Variolin A] |  |  |  | cytotoxic activity against the P388 cell line (P388 cell line): important cytotoxic activity
6 | COC(=O)c1c2c(O)ccnc2n2c(N)nccc12 [Variolin D, variolin D] |  |  |  | activity in all the assays [1]: inactive
7 | Nc1nccc(-c2c3c(O)ccnc3n3c(N)nccc23)n1 [variolin B] | 850 | 90 | 170 | cytotoxic activity against the P388 cell line (P388 cell line): cytotoxic activity; activity against a range of other microorganisms (other microorganisms): inactive; effectiveness against Herpes simplex (Herpes simplex): effective
